Read-outs that look alike come from different tables or passages of the source.
Experiments:
P. aeruginosa strain 762 = experiment: Effect of LCBs on P. aeruginosa growth in vitro (colony counts); format: cell-based, Pseudomonas aeruginosa; settings: Pseudomonas aeruginosa
Protocol: P. aeruginosa strain 762 or ATCC 27853 were grown in LB medium at 37° C. until the early logarithmic phase (OD550 0.2). Bacteria were then diluted in PBS to a concentration of 5×10^3 CFU/ml. Stock solutions of sphingolipids (5 mM in 7.5% n-Octyl-β-D-Glucopyranoside (OGP) or in DMSO were prepared by sonication. Sphingolipids were added to the bacteria (0.1-50 μM in 0.075% OGP or 1% DMSO). Bacteria were incubated with sphingolipids for 2 hr at 37° C. and a sample of 200 μl bacteria solution were plated on LB agar plates, incubated overnight at 37° C. and colonies were counted.
The direct effect of sphingosine and other sphingoid long chain bases (LCBs) on the growth of P. aeruginosa was examined in vitro. Bacteria were incubated with a variety of LCBs and the EC50 values on bacterial growth were determined (Table 1).

[1] = superscript reference marks; cited from earlier work
[2] = test system: sphingosine and ceramide on tracheal and bronchial epithelial cells; experiment: Sphingosine and ceramide levels in airway epithelial cells after inhalation (immunostaining, in situ kinase assays); design: species or system mouse; settings: CF (and CerS2 null) mice, in vivo inhalation
Protocol: Sphingosine levels were determined in the trachea and lung of wildtype (wt), Cftr- and CerS2 null mice (Teichgräber, V. et al. Nat Med 2008, 14, 382-391; Pewzner-Jung et al. J Biol Chem. 2010 Apr. 2; 285(14):10902-10) and human nasal tissues by (i) confocal microscopy analysis of paraffin sections stained with Cy3-coupled anti-sphingosine antibodies and (ii) by newly developed biochemical assays that employed sphingosine kinase assays to determine sphingosine in freshly isolated tracheal epithelial cells and on the surface of tracheal epithelial cells in situ. In the latter experiments the intact trachea was carefully opened and incubated with sphingosine kinase in the presence of [^32]PγATP. Lipids were extracted and the concentration of sphingosine-1-[^32]P was determined. In addition, surface sphingosine was immunoprecipitated from the surface of tracheal epithelial cells by binding of anti-sphingosine antibodies to the intact inner surface of the trachea, followed by washing, lysis, immobilization of immune complexes, extraction of bound sphingosine and quantification of sphingosine by kinase assays. […]
Mice were sacrificed and the trachea immediately removed. […] The TLC plates were exposed to radiography films, the spots were removed from the plates, and the incorporation of [^32P] into ceramide was measured by liquid scintillation counting. […]

P. aeruginosa = experiment: Sytox green staining (membrane permeabilization of bacteria); format: cell-based, Pseudomonas aeruginosa; settings: 50 μM in 1% DMSO, 30 min
Protocol: FIGS. 4A-D. The ceramide/sphingosine ratio regulates P. aeruginosa growth. (A) Representative image of two independent experiments (left hand panel) after addition of Sytox green (1 μM) for 30 min in the absence or presence of 50 μM sphingosine or 50 μM C16-ceramide (C16-Cer) in 1% DMSO. Fluorescent and thus permeabilised bacteria were quantified (right hand panel). (B-D) The inhibitory effect of sphingosine on the growth of P. aeruginosa strain 762 is decreased in vitro and in vivo by C16-ceramide. (B) Bacteria were incubated with 10 μM sphingosine, and increasing concentrations of C16-ceramide, and growth was determined by counting colony forming unit (CFU) after 24 hrs growth on LB agar plates. Number of bacteria in the lung (C) and sickness score (D) of CF mice or WT mice inhaled with either sphingosine or a combination of sphingosine and C16-ceramide 1 h before (b.i.) with 10^8 P. aeruginosa CFU strain 762. Data are means±s.d., n=3 in (A,B) and n=4 in (C,D).
Bacteria at early logarithmic phase were incubated in the presence or absence of sphingosine or C16-ceramide (C16-cer) (50 μM in 1% DMSO) for 30 minutes at 37° C. […] Sample were examined under fluorescence microscope, and bacteria were counted both in bright field and under green fluorescent filter in two independent experiments.

With `CCCCCCCCCCCCC/C=C/[C@@H](O)[C@@H](N)CO` (stereo in doubt) [D-erythro-Sphingosine, (2S,3R)-2-aminooctadec-4-ene-1,3-diol] as the compound, how does the EC50 (P. aeruginosa strain 762; 762, Table 3, Example 3, method of Example 2, n=3 for each analog, given as ranges, read-out: EC50) read?
The EC50 was 0.5 to 1 µM.

And the EC50 (P. aeruginosa strain 762; P. aeruginosa strain 762, 2 hrs at 37° C. in 0.075% OGP, colonies counted, at least 3 independent experiments, read-out: EC50 (μM) ± S.D.)?
The EC50 was 0.5 ± 0.1 µM.

What about the “pK (in PBS)” value [1] of the same compound?
Its value is 6.7^1,2.

What about the “sphingosine levels on airway epithelial cells after inhalation” value [2] of the same compound?
Its value is “restored sphingosine levels”.

What about the “Sytox green fluorescence of bacteria” value (P. aeruginosa) of the same compound?
The value was “large increase in fluorescence”.

Source: patent US20150258043A1, “USE OF SPHINGOID LONG CHAIN BASES AND THEIR ANALOGS IN TREATING AND PREVENTING BACTERIAL INFECTIONS” (YEDA RESEARCH AND DEVELOPMENT CO. LTD., priority 2012, published 2015)
